We go through 59 compounds from patent US4900672A, “Method for preservation of nitrile hydration activity” (Nitto Kagaku Kogyo Kabushiki Kaisha, priority 1986, dated 1990).

Read-outs that look alike come from different tables or passages of the source.

This experiment deals with T1, nitrile hydratase (Pseudomonas chlororaphis, UniProt P27763+P27764).
T1 sequence (P27764 1-200): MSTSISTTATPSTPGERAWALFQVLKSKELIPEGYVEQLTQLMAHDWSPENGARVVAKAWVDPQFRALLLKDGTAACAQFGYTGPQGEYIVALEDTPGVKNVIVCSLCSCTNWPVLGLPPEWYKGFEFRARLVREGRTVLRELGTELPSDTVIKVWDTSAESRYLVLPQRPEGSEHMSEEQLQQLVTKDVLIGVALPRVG
T1 sequence (P27763 1-220): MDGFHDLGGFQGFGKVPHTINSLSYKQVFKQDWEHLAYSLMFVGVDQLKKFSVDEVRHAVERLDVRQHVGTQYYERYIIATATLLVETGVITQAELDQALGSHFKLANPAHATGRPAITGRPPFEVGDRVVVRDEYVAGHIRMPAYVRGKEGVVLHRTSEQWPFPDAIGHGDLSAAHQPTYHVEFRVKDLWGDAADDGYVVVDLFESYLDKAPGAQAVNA
As to the kind of experiment: Preservation of nitrile hydration activity of washed cell suspension left standing ice-cooled with stabilizer. The experiment is classed as cell-based, Pseudomonas chlororaphis B23 (FERM BP-187).

Setting [1] is: 120 h; Table 3; 10 mg organic acid in 5 ml cell suspension, pH 6.0, left standing 5 days ice-cooled; no stabilizer: 43; read-out: % Residual Activity.
Setting [2] is: 120 h; Table 2; 10 mg amide in 5 ml cell suspension, pH 6.5, left standing 5 days ice-cooled; no stabilizer: 42; read-out: % Residual Activity.
The mark [3] stands for this setting: 120 h, pH 6, read-out: % Residual Activity.
[4] abbreviates: 120 h, pH 6.5, read-out: % Residual Activity.
Setting [5] is: 120 h; Table 1; 10 mg nitrile in 5 ml cell suspension, pH 6.5, left standing 5 days ice-cooled; no stabilizer: 42; read-out: % Residual Activity.
[6] abbreviates: 96 h, pH 7, read-out: % Residual Activity.
[7] abbreviates: 96 h; Table 4; pH 5.0, 25 mg stabilizer in 5 ml, 4 days ice-cooled; no stabilizer: 2; read-out: % Residual Activity.
The mark [8] stands for this setting: 96 h; Table 4; pH 6.0, 25 mg stabilizer in 5 ml, 4 days ice-cooled; no stabilizer: 41; read-out: % Residual Activity.
Setting [9] is: 96 h; Table 4; pH 6.5, 25 mg stabilizer in 5 ml, 4 days ice-cooled; no stabilizer: 52; read-out: % Residual Activity.
Where [10] appears, read: 96 h; Table 4; pH 8.0, 25 mg stabilizer in 5 ml, 4 days ice-cooled; no stabilizer: 26; read-out: % Residual Activity.
Where [11] appears, read: Table 5; stabilizer concentration 0.01 g/l, pH 6.0, 3 days ice-cooled; no stabilizer (pH 6.5): 52; read-out: % Residual Activity.
The mark [12] stands for this setting: 96 h, pH 5.5, read-out: % Residual Activity.
The mark [13] stands for this setting: pH 6, read-out: % Residual Activity.

For `O=C(O)C(O)CO` (racemic) [DL-Glyceric acid], the activity at 10 mg under setting [1] is 87%.
Regarding `CC(N)=O` [Acetamide], under setting [2], the activity at 10 mg was 67%.
`CC(=O)O` [Acetic acid]: the activity at 10 mg under setting [3] was 77%.
In the case of `CC#N` [Acetonitrile], the activity at 10 mg under setting [4] was 71%.
For the compound `C=CC(N)=O` [Acrylamide], the activity at 10 mg under setting [2] was found to be 73%.
`C=CC(=O)O` [Acrylic acid]: under setting [1], the activity at 10 mg came out at 70%.
Consider `C=CC#N` [Acrylonitrile], for which the activity at 10 mg under setting [5] turned out to be 71%.
In the case of `N#CCCCCC#N` [Adiponitrile], the activity at 10 mg under setting [5] stood at 84%.
For the compound `NC(=O)c1ccccc1` [Benzamide], the activity at 10 mg under setting [2] stood at 65%.
On to `O=C(O)c1ccccc1` [Benzoic acid], for which, under setting [1], the activity at 10 mg was 68%.
Take `N#Cc1ccccc1` [Benzonitrile]: under setting [5], the activity at 10 mg is 70%.
For `CCCCCC(=O)O` [Caproic acid], the activity at 10 mg under setting [1] was 83%.
Regarding `NC(=O)CCl` [Chloroacetamide], the activity at 10 mg under setting [4] came to 71%.
`N#CCCl` [Chloroacetonitrile]: under setting [5], the activity at 10 mg is 77%.
For the compound `O=C(O)CC(O)(CC(=O)O)C(=O)O` [Citric acid], under setting [1], the activity at 10 mg came out at 77%.
For the compound `N#CCC(N)=O` [Cyanoacetamide], under setting [5], the activity at 10 mg is 75%.
On the same count and under the same terms, the figure for `N#CCC(=O)O` [Cyanoacetic acid] is 69%.
For the compound `O=CO` [Formic Acid], the activity at 10 mg under setting [3] amounted to 83%.
With `O=C(O)/C=C/C(=O)O` [Fumaric acid], under setting [3], the activity at 10 mg came out at 82%.
Turning to `NCC(N)=O` [Glycine amide], the activity at 10 mg under setting [2] was 63%.
Turning to `N#CCN` [Glycine nitrile], the activity at 10 mg under setting [5] turned out to be 68%.
As to `O=C(O)CO` [Glycolic acid], the activity at 10 mg under setting [1] is 77%.
Same read-out and setting: the value for `O=CC(=O)O` [Glyoxylic acid] was 88%.
For the compound `CC(C)C(N)=O` [Isobutyramide], the activity at 25 mg under setting [6] amounted to 78%; the activity at 25 mg under setting [7] is 3%; the activity at 25 mg (96 h; Table 4; pH 5.5, 25 mg stabilizer in 5 ml, 4 days ice-cooled; no stabilizer: 32; read-out: % Residual Activity) stood at 100%; the activity at 25 mg under setting [8] was found to be 100%; the activity at 25 mg under setting [9] amounted to 87%; the activity at 25 mg under setting [10] stood at 52%. Further, the activity at 10 mg under setting [4] is 99%. For the same compound, the remaining activity at 10 µg/mL under setting [11] was determined as 82%. For the same compound, the remaining activity at 100 µg/mL (Table 5; stabilizer concentration 0.1 g/l, pH 6.0, 3 days ice-cooled; read-out: % Residual Activity) is 88%. Further, under “Table 5; stabilizer concentration 1.0 g/l, pH 6.0, 3 days ice-cooled; read-out: % Residual Activity”, the remaining activity at 1000 µg/mL is 100%. For the same compound, for the setting “Table 5; stabilizer concentration 5.0 g/l, pH 6.0, 3 days ice-cooled; read-out: % Residual Activity”, the remaining activity at 5000 µg/mL worked out at 100%. Further, the remaining activity at 20000 µg/mL (Table 5; stabilizer concentration 20 g/l, pH 6.0, 3 days ice-cooled; read-out: % Residual Activity) came to 100%. Also, the remaining activity at 50000 µg/mL (Table 5; stabilizer concentration 50 g/l, pH 6.0, 3 days ice-cooled; read-out: % Residual Activity) was found to be 90%.
On to `CC(C)C(=O)O` [Isobutyric acid], for which the activity at 25 mg (96 h, pH 5, read-out: % Residual Activity) was found to be 1%; the activity at 25 mg under setting [12] was 100%; the activity at 25 mg (96 h, pH 6, read-out: % Residual Activity) worked out at 100%; the activity at 25 mg (96 h, pH 6.5, read-out: % Residual Activity) is 88%; the activity at 25 mg under setting [6] worked out at 78%; the activity at 25 mg (96 h, pH 8, read-out: % Residual Activity) came to 49%. The activity at 10 mg under setting [3] is 97%. Also, the remaining activity at 100 µg/mL under setting [13] worked out at 83%. For the same compound, the remaining activity at 1000 µg/mL under setting [13] amounted to 100%. For the same compound, the remaining activity at 5000 µg/mL under setting [13] worked out at 97%. For the same compound, the remaining activity at 20000 µg/mL under setting [13] amounted to 95%. For the same compound, the remaining activity at 50000 µg/mL under setting [13] was 87%. The remaining activity at 10 µg/mL (read-out: % Residual Activity) was determined as 80%.
As to `CC(C)C#N` [Isobutyronitrile], the activity at 25 mg under setting [12] came out at 98%; the activity at 25 mg under setting [7] is 5%; the activity at 25 mg under setting [8] amounted to 97%; the activity at 25 mg under setting [9] worked out at 85%; the activity at 25 mg (96 h; Table 4; pH 7.0, 25 mg stabilizer in 5 ml, 4 days ice-cooled; no stabilizer: 43; read-out: % Residual Activity) amounted to 80%; the activity at 25 mg under setting [10] worked out at 53%. Also, the activity at 10 mg under setting [5] amounted to 95%. Under setting [11], the remaining activity at 10 µg/mL was 78%. Moreover, under setting [13], the remaining activity at 100 µg/mL was 85%. For the same compound, the remaining activity at 1000 µg/mL under setting [13] amounted to 98%. Further, the remaining activity at 5000 µg/mL under setting [13] amounted to 100%. Further, the remaining activity at 20000 µg/mL under setting [13] came to 91%.
For `CC(O)C(N)=O` (stereo not shown) [Lactamide], the activity at 10 mg under setting [2] turned out to be 70%.
On to `CC(O)C#N` (stereo not shown) [Lactonitrile], for which the activity at 10 mg under setting [5] was found to be 73%.
For `O=C(O)CC(O)C(=O)O` (stereo not shown) [Malic acid], the activity at 10 mg under setting [1] worked out at 81%.
On to `NC(=O)CC(N)=O` [Malondiamide], for which the activity at 10 mg under setting [2] was 66%.
With `O=C(O)CC(=O)O` [Malonic acid], the activity at 10 mg under setting [1] worked out at 63%.
Take `N#CCC#N` [Malononitrile]: the activity at 10 mg (120 h, pH 6.5; read-out: % Residual Activity) was 69%.
As for `C=C(C)C(N)=O` [Methacrylamide], under setting [2], the activity at 10 mg stood at 79%.
Take `C=C(C)C(=O)O` [Methacrylic acid]: under setting [1], the activity at 10 mg came out at 81%.
For `C=C(C)C#N` [Methacrylonitrile], under setting [5], the activity at 10 mg was 80%.
Turning to `O=C(O)CCl` [Monochloroacetic acid], under setting [1], the activity at 10 mg is 70%.
Regarding `NC(=O)c1cccnc1` [Nicotinamide], under setting [2], the activity at 10 mg amounted to 59%.
As to `N#Cc1cccnc1` [Nicotinonitrile], the activity at 10 mg under setting [5] amounted to 73%.
As for `O=C(O)CC(=O)C(=O)O` [Oxalacetic acid], the activity at 10 mg under setting [1] turned out to be 83%.
On to `CCC(N)=O` [Propionamide], for which the activity at 10 mg under setting [2] amounted to 93%.
`CCC(=O)O` [Propionic acid]: under setting [3], the activity at 10 mg stood at 93%.
As for `CCC#N` [Propionitrile], the activity at 10 mg under setting [5] turned out to be 90%.
As for `NC(=O)CCC(N)=O` [Succindiamide], the activity at 10 mg under setting [2] was 68%.
For `O=C(O)CCC(=O)O` [Succinic acid], under setting [3], the activity at 10 mg is 80%.
Consider `N#CCCC#N` [Succiononitrile], for which, under setting [5], the activity at 10 mg was determined as 81%.
For the compound `CCCCC(=O)O` [Valeric acid], the activity at 10 mg under setting [3] was 84%.
Take `CCCC(N)=O` [n-Butyramide]: the activity at 10 mg under setting [2] worked out at 89%.
As for `CCCC#N` [n-Butyronitrile], under setting [5], the activity at 10 mg was 88%.
Regarding `CCCCCC(N)=O` [n-Capronamide], the activity at 10 mg under setting [2] was 88%.
Consider `CCCCCC#N` [n-Capronitrile], for which the activity at 10 mg under setting [5] was found to be 89%.
With `CCCCC(N)=O` [n-Valeramide], under setting [2], the activity at 10 mg came to 94%.
In the case of `CCCCC#N` [n-Valeronitrile], the activity at 10 mg under setting [5] was determined as 93%.
As for `NCCC(N)=O` [β-Aminopropionamide], under setting [2], the activity at 10 mg was determined as 68%.
As for `NCCC(=O)O` [β-Aminopropionic acid], the activity at 10 mg under setting [3] amounted to 71%.
`N#CCCN` [β-Aminopropionitrile]: under setting [5], the activity at 10 mg worked out at 70%.
On to `NC(=O)CCCl` [β-Chloropropionamide], for which the activity at 10 mg under setting [2] was 71%.
Turning to `N#CCCCl` [β-Chloropropionitrile], the activity at 10 mg under setting [5] was found to be 80%.
In the case of `NC(=O)CCO` [β-Hydroxypropionamide], under setting [2], the activity at 10 mg was found to be 74%.
Regarding `N#CCCO` [β-Hydroxypropionitrile], under setting [5], the activity at 10 mg stood at 84%.
